Test results from patent US8901118B2, “Compounds and methods for kinase modulation, and indications therefor” (Plexxikon Inc., priority 2010, dated 2014).

Tests used:
CYP2C9 = CYP2C9 (Homo sapiens, UniProt P11712); experiment: CYP2C9 inhibition (fluorescent substrate MFC); format: in vitro ADME; details: read-out: Cyp IC50 2C9
Summary of the method: (§1)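 Test compound titrated 1:1 across ten concentrations; metabolite fluorescence measured after 37 °C incubation of 15 min (CYP1A2), 30 min (CYP2C19, CYP2D6) or 45 min (CYP2C9). IC50 from signal versus concentration.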

c-Kit kinase = c-Kit kinase (Homo sapiens, UniProt P10721); experiment: c-Kit kinase biochemical activity assay (AlphaScreen, biotin-(E4Y)10 phosphorylation); details: 100 μM ATP; read-out: Biochemical Inhibition IC50 Kit
Summary of the method: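 AlphaScreen read-out (streptavidin donor, anti-phosphotyrosine PY20 acceptor beads, EDTA stop) of c-Kit activity. Reaction: 0.75 ng kinase, 100 µM ATP, 30 nM biotin-(E4Y)10, 25 mM HEPES pH 7.5, 2 mM MgCl2, 2 mM MnCl2, 5% DMSO, 1 h room temperature. IC50 derived over an 8-point, two-fold dilution series.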

Fms kinase = Fms kinase (Homo sapiens, UniProt P07333); experiment: Fms kinase biochemical activity assay (AlphaScreen, biotin-(E4Y)10 phosphorylation); details: 100 μM ATP; read-out: Biochemical Inhibition IC50 Fms
Summary of the method: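 AlphaScreen read-out (PY20 acceptor, streptavidin donor beads, EDTA stop) of biotin-(E4Y)10 phosphorylation, with IC50 taken from the concentration–signal curve. Reaction: 30 nM substrate, 100 μM ATP, 1 ng/well Fms, Hepes pH 7.5 with Mg2+/Mn2+, 5% DMSO, 20 min at 30 °C.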

CYP2C19 = CYP2C19 (Homo sapiens, UniProt P33261); experiment: CYP2C19 inhibition (fluorescent substrate CEC); format: in vitro ADME; details: read-out: Cyp IC50 2C19
Summary of the method: as §1

Chain of Fms kinase (P07333 20-972): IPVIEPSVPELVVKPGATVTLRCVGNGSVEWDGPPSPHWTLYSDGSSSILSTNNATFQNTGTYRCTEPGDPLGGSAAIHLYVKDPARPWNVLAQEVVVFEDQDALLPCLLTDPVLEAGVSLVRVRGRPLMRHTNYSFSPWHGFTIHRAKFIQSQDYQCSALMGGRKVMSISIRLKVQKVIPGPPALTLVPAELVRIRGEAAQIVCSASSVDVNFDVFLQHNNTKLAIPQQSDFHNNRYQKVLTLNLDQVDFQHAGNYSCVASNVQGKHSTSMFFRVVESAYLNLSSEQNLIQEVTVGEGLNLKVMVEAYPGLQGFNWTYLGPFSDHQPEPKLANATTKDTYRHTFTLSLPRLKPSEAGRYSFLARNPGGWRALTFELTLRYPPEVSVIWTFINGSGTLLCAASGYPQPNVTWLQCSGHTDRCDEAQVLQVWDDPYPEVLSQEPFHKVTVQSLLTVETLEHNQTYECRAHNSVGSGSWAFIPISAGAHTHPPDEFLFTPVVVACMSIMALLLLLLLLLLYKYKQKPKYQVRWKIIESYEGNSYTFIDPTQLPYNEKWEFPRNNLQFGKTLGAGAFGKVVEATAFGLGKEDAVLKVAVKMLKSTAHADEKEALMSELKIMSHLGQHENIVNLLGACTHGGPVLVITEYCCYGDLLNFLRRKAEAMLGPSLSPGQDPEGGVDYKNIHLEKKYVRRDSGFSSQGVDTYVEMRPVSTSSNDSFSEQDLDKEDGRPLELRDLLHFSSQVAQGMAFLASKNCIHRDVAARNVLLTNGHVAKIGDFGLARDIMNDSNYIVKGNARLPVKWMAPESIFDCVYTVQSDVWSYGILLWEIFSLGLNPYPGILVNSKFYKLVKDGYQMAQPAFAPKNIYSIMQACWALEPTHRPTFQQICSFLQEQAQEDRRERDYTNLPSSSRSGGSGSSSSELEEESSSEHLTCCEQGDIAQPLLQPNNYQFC
Chain of c-Kit kinase (P10721 26-976): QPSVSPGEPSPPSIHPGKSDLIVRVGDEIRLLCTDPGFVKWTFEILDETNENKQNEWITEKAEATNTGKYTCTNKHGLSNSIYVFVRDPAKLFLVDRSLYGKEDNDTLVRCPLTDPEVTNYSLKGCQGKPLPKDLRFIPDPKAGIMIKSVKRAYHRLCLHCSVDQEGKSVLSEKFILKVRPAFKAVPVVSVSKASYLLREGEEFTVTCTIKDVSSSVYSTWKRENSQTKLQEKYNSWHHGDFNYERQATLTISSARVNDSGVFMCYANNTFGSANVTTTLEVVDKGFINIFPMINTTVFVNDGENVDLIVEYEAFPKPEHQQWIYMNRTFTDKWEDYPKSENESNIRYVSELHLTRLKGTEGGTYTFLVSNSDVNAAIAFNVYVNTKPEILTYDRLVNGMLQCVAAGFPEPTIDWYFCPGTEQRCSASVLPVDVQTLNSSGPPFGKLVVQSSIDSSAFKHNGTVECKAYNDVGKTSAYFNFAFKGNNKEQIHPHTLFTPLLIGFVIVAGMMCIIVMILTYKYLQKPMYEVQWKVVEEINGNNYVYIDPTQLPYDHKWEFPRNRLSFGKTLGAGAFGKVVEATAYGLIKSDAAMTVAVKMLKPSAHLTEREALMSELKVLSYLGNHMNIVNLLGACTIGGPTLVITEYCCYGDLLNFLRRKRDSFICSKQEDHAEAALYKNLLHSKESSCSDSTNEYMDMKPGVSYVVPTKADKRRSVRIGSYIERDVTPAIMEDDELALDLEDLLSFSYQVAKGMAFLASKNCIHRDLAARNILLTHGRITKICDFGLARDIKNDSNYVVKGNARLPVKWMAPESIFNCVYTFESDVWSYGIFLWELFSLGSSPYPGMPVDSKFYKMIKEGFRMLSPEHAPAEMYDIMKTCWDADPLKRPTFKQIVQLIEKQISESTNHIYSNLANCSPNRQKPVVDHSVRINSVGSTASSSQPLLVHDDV
Chain of CYP2C9 (P11712 whole entry): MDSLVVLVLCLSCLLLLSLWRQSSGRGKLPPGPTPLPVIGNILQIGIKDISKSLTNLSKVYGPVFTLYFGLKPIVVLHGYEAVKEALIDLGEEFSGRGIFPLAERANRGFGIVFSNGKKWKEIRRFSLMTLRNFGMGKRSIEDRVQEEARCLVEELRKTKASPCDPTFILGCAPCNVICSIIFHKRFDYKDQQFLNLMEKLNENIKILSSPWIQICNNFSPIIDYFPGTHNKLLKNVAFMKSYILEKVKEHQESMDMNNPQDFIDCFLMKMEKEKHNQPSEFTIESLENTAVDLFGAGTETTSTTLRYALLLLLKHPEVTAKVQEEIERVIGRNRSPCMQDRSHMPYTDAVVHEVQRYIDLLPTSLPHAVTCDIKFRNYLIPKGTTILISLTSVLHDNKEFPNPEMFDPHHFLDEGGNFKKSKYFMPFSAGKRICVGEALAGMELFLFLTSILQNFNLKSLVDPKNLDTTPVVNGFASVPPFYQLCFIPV
Chain of CYP2C19 (P33261 whole entry): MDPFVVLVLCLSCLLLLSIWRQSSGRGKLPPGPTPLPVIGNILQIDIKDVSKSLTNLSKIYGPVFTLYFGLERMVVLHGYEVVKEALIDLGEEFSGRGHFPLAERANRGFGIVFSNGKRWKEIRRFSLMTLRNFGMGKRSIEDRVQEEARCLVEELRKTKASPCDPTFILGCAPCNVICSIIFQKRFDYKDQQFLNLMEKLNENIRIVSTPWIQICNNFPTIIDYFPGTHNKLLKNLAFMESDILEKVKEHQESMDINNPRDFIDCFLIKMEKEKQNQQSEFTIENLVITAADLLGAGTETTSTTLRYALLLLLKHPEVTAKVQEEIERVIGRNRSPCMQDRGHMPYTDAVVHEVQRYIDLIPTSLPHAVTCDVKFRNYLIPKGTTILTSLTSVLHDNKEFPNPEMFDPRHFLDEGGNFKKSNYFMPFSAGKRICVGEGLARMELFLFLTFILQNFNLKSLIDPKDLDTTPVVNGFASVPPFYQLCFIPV

Structure (SMILES)	IC50 (CYP2C9) [µM]	IC50 (c-Kit kinase) [nM]	IC50 (Fms kinase) [nM]	IC50 (CYP2C19) [µM]
CCc1ccc(Nc2ccc(C(=O)c3c[nH]c4ncnc(NC5CCC(F)(F)CC5)c34)c(F)n2)cn1 [Compound P-4096, [4-[(4,4-difluorocyclohexyl)amino]-7H-pyrrolo[2,3-d]pyrimidin-5-yl]-[6-[(6-ethyl-3-pyridyl)amino]-2-fluoro-3-pyridyl]methanone]	< 5	< 1000	< 100	< 5
COc1ccc(Nc2ccc(C(=O)c3c[nH]c4ncnc(NC5CC5)c34)c(F)n2)cn1 [Compound P-4126, [4-(cyclopropylamino)-7H-pyrrolo[2,3-d]pyrimidin-5-yl]-[2-fluoro-6-[(6-methoxy-3-pyridyl)amino]-3-pyridyl]methanone]	> 10	< 100	< 10	> 10
CCc1ccc(Nc2ccc(C(=O)c3c[nH]c4ncnc(NC5CCC5)c34)c(F)n2)cn1 [Compound P-4095, [4-(cyclobutylamino)-7H-pyrrolo[2,3-d]pyrimidin-5-yl]-[6-[(6-ethyl-3-pyridyl)amino]-2-fluoro-3-pyridyl]methanone]	> 10	< 100	< 10	> 10
COc1ccc(Nc2ccc(C(=O)c3c[nH]c4ncnc(NCc5ccc(C(F)(F)F)nc5)c34)c(F)n2)cn1 [Compound P-4071, [2-fluoro-6-[(6-methoxy-3-pyridyl)amino]-3-pyridyl]-[4-[[6-(trifluoromethyl)-3-pyridyl]methylamino]-7H-pyrrolo[2,3-d]pyrimidin-5-yl]methanone]	> 10	> 1000	< 1000	> 10
O=C(c1ccc(NC2CCC(F)(F)CC2)nc1F)c1c[nH]c2ncnc(NC3CC3)c12 [Compound P-4062, [4-(cyclopropylamino)-7H-pyrrolo[2,3-d]pyrimidin-5-yl]-[6-[(4,4-difluorocyclohexyl)amino]-2-fluoro-3-pyridyl]methanone]	> 10	< 100	< 10	> 10
O=C(c1ccc(Nc2ccc(C(F)(F)F)nc2)nc1F)c1c[nH]c2ncnc(NC3CC3)c12 [Compound P-4091, [4-(cyclopropylamino)-7H-pyrrolo[2,3-d]pyrimidin-5-yl]-[2-fluoro-6-[[6-(trifluoromethyl)-3-pyridyl]amino]-3-pyridyl]methanone]	> 10	< 100	< 100	> 10
CCc1ccc(Nc2ccc(C(=O)c3c[nH]c4ncnc(NCCCOC)c34)c(F)n2)cn1 [Compound P-4098, [6-[(6-ethyl-3-pyridyl)amino]-2-fluoro-3-pyridyl]-[4-(3-methoxypropylamino)-7H-pyrrolo[2,3-d]pyrimidin-5-yl]methanone]	< 5	< 100	< 10	< 5
COc1ccc(Nc2ccc(C(=O)c3c[nH]c4ncnc(NCC5CC5)c34)c(F)n2)cn1 [Compound P-4067, [4-(cyclopropylmethylamino)-7H-pyrrolo[2,3-d]pyrimidin-5-yl]-[2-fluoro-6-[(6-methoxy-3-pyridyl)amino]-3-pyridyl]methanone]	> 10	< 1000	< 10	5 to 10
CCc1ccc(Nc2ccc(C(=O)c3c[nH]c4ncnc(NCC(F)(F)F)c34)c(F)n2)cn1 [Compound P-4120, [6-[(6-ethyl-3-pyridyl)amino]-2-fluoro-3-pyridyl]-[4-(2,2,2-trifluoroethylamino)-7H-pyrrolo[2,3-d]pyrimidin-5-yl]methanone]	< 5	< 100	< 100	< 5
Cc1ccc(Nc2ccc(C(=O)c3c[nH]c4ncnc(NCC(F)(F)F)c34)c(F)n2)cn1 [Compound P-4112, [2-fluoro-6-[(6-methyl-3-pyridyl)amino]-3-pyridyl]-[4-(2,2,2-trifluoroethylamino)-7H-pyrrolo[2,3-d]pyrimidin-5-yl]methanone]	< 5	< 1000	< 100	< 5
COc1ccc(Nc2ccc(C(=O)c3c[nH]c4ncnc(NCC5CCCO5)c34)c(F)n2)cn1 (centres unmarked) [Compound P-4073, [2-fluoro-6-[(6-methoxy-3-pyridyl)amino]-3-pyridyl]-[4-(tetrahydrofuran-2-ylmethylamino)-7H-pyrrolo[2,3-d]pyrimidin-5-yl]methanone]	> 10	< 1000	< 100	5 to 10
O=C(c1ccc(Nc2ccc(C3CC3)nc2)nc1F)c1c[nH]c2ncnc(NC3CC3)c12 [Compound P-4093, [4-(cyclopropylamino)-7H-pyrrolo[2,3-d]pyrimidin-5-yl]-[6-[(6-cyclopropyl-3-pyridyl)amino]-2-fluoro-3-pyridyl]methanone]	> 10	< 100	< 10	> 10
CCc1ccc(Nc2ccc(C(=O)c3c[nH]c4ncnc(NC5CCCC5)c34)c(F)n2)cn1 [Compound P-4099, [4-(cyclopentylamino)-7H-pyrrolo[2,3-d]pyrimidin-5-yl]-[6-[(6-ethyl-3-pyridyl)amino]-2-fluoro-3-pyridyl]methanone]	< 5	< 100	< 100	< 5
COCCCNc1ncnc2[nH]cc(C(=O)c3ccc(Nc4ccc(OC)nc4)nc3F)c12 [Compound P-4079, [2-fluoro-6-[(6-methoxy-3-pyridyl)amino]-3-pyridyl]-[4-(3-methoxypropylamino)-7H-pyrrolo[2,3-d]pyrimidin-5-yl]methanone]	> 10	< 100	< 10	5 to 10
O=C(c1ccc(NC2CCC(F)(F)CC2)nc1)c1c[nH]c2ncnc(NC3CC3)c12 [Compound P-4088, [4-(cyclopropylamino)-7H-pyrrolo[2,3-d]pyrimidin-5-yl]-[6-[(4,4-difluorocyclohexyl)amino]-3-pyridyl]methanone]	> 10	< 1000	< 100	> 10

Continued, values first:

IC50 (CYP2C9) [µM]	IC50 (c-Kit kinase) [nM]	IC50 (Fms kinase) [nM]	IC50 (CYP2C19) [µM]	Structure (SMILES)
< 5	< 10	< 10	< 5	CCc1ccc(Nc2ccc(C(=O)c3c[nH]c4ncnc(NC)c34)c(F)n2)cn1 [Compound P-4124, [6-[(6-ethyl-3-pyridyl)amino]-2-fluoro-3-pyridyl]-[4-(methylamino)-7H-pyrrolo[2,3-d]pyrimidin-5-yl]methanone]
> 10	< 10	< 10	> 10	Fc1ccc(Nc2ncc(Cc3c[nH]c4ncc(Cl)cc34)cn2)cc1 [Compound P-3012, [5-(5-Chloro-1H-pyrrolo[2,3-b]pyridin-3-ylmethyl)-pyrimidin-2-yl]-(4-fluoro-phenyl)-amine]
> 10	< 100	< 10	5 to 10	COc1ccc(Nc2ccc(C(=O)c3c[nH]c4ncnc(NCC(F)(F)F)c34)c(F)n2)cn1 [Compound P-4084, [2-fluoro-6-[(6-methoxy-3-pyridyl)amino]-3-pyridyl]-[4-(2,2,2-trifluoroethylamino)-7H-pyrrolo[2,3-d]pyrimidin-5-yl]methanone]
> 10	< 100	< 10	> 10	CNc1ncnc2[nH]cc(C(=O)c3ccc(Nc4ccc(OC)nc4)nc3F)c12 [Compound P-4083, [2-fluoro-6-[(6-methoxy-3-pyridyl)amino]-3-pyridyl]-[4-(methylamino)-7H-pyrrolo[2,3-d]pyrimidin-5-yl]methanone]
> 10	> 1000	< 100	> 10	O=C(c1ccc(NC2CCC(F)(F)CC2)nc1Cl)c1c[nH]c2ncnc(NCC(F)(F)F)c12 [Compound P-4057, [2-chloro-6-[(4,4-difluorocyclohexyl)amino]-3-pyridyl]-[4-(2,2,2-trifluoroethylamino)-7H-pyrrolo[2,3-d]pyrimidin-5-yl]methanone]
> 10	< 100	< 100	> 10	CCc1ccc(Nc2ccc(C(=O)c3c[nH]c4ncnc(NC5CC5)c34)c(F)n2)cn1 [Compound P-4125, [4-(cyclopropylamino)-7H-pyrrolo[2,3-d]pyrimidin-5-yl]-[6-[(6-ethyl-3-pyridyl)amino]-2-fluoro-3-pyridyl]methanone]
> 10	< 100	< 100	> 10	O=C(c1ccc(NC2CCC(F)(F)CC2)nc1)c1c[nH]c2ncnc(NCC(F)(F)F)c12 [Compound P-4087, [6-[(4,4-difluorocyclohexyl)amino]-3-pyridyl]-[4-(2,2,2-trifluoroethylamino)-7H-pyrrolo[2,3-d]pyrimidin-5-yl]methanone]
5 to 10	> 1000	< 100	< 10	COc1ccc(Nc2ccc(C(=O)c3c[nH]c4ncnc(N[C@@H](C)c5ccc(F)cc5)c34)c(F)n2)cn1 [Compound P-4072, [2-fluoro-6-[(6-methoxy-3-pyridyl)amino]-3-pyridyl]-[4-[[(1S)-1-(4-fluorophenyl)ethyl]amino]-7H-pyrrolo[2,3-d]pyrimidin-5-yl]methanone]
